According to PubChem BioAssay AID2060884 (Molecular Pharmacology Branch, DTP, NCI, 2025):
pIC50: −log10 of the molar value.

Tested on: NCI-H929 complex spheroids, viability % test/control
Test: Anticancer human tumor NCI-H929 cell line growth inhibition [RAS];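 note: compound exposure lasted seven days before viability was read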;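 for viability, T/C: 100% = DMSO vehicle control viability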
Conditions: for viability, T/C: stronger effect = lower value
Outline: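 Tumour cells grown as complex spheroids with HUVEC endothelial cells and mesenchymal stem cells, treated with RAS pathway inhibitor combinations. Each agent spans half-log steps from near clinical Cmax, or 10 microM where Cmax is unknown.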

Compound `CC1(C)CCC(Nc2ncc(C(F)(F)F)c(-c3c[nH]c4c(P(C)(C)=O)c(C#N)ccc34)n2)CN1` (centres undefined) + C=CC(=O)N1CCN(c2nc(OCC3CCCN3C)nc3c(F)c(-c4nc(N)cc(C)c4C(F)(F)F)c(Cl)cc23)C(C)C1 has a pIC50 (curve of first compound, second compound 0.00316 µM) of 8.25, a pIC50 (curve of first compound, second compound 0.01 µM) of 8.20 and a pIC50 (curve of first compound, second compound 0.0316 µM) of 8.20. The pIC50 (curve of first compound, second compound 0.1 µM) was 8.19, the pIC50 (curve of first compound, second compound 0.316 µM) was 8.19 and the pIC50 (curve of first compound, second compound 1 µM) was 8.18. For the same compound, the viability, T/C (second compound 0.00316 µM, first compound 0.000949 µM) was 128%, the viability, T/C (second compound 0.00316 µM, first compound 0.003 µM) was 92.7% and the viability, T/C (second compound 0.00316 µM, first compound 0.00949 µM) was 15.7%. It also gave a viability, T/C (second compound 0.00316 µM, first compound 0.03 µM) of 9.6%, a viability, T/C (second compound 0.00316 µM, first compound 0.0949 µM) of 8.73% and a viability, T/C (second compound 0.00316 µM, first compound 0.3 µM) of 5.5%. For the same compound, the viability, T/C (second compound 0.01 µM, first compound 0.000949 µM) was 125%, the viability, T/C (second compound 0.01 µM, first compound 0.003 µM) was 109% and the viability, T/C (second compound 0.01 µM, first compound 0.00949 µM) was 16.1%. The viability, T/C (second compound 0.01 µM, first compound 0.03 µM) was 12.3%, the viability, T/C (second compound 0.01 µM, first compound 0.0949 µM) was 9.77% and the viability, T/C (second compound 0.01 µM, first compound 0.3 µM) was 5.17%. For the same compound, the viability, T/C (second compound 0.0316 µM, first compound 0.000949 µM) was 125%, the viability, T/C (second compound 0.0316 µM, first compound 0.003 µM) was 111% and the viability, T/C (second compound 0.0316 µM, first compound 0.00949 µM) was 16.7%. It also gave a viability, T/C (second compound 0.0316 µM, first compound 0.03 µM) of 11.4%, a viability, T/C (second compound 0.0316 µM, first compound 0.0949 µM) of 7.81% and a viability, T/C (second compound 0.0316 µM, first compound 0.3 µM) of 5.16%. It also gave a viability, T/C (second compound 0.1 µM, first compound 0.000949 µM) of 123%, a viability, T/C (second compound 0.1 µM, first compound 0.003 µM) of 114% and a viability, T/C (second compound 0.1 µM, first compound 0.00949 µM) of 16.6%. It also gave a viability, T/C (second compound 0.1 µM, first compound 0.03 µM) of 11.9%, a viability, T/C (second compound 0.1 µM, first compound 0.0949 µM) of 7.35% and a viability, T/C (second compound 0.1 µM, first compound 0.3 µM) of 5.2%. It also gave a viability, T/C (second compound 0.316 µM, first compound 0.000949 µM) of 129%, a viability, T/C (second compound 0.316 µM, first compound 0.003 µM) of 114% and a viability, T/C (second compound 0.316 µM, first compound 0.00949 µM) of 18.5%. The viability, T/C (second compound 0.316 µM, first compound 0.03 µM) was 9.66%, the viability, T/C (second compound 0.316 µM, first compound 0.0949 µM) was 8.16% and the viability, T/C (second compound 0.316 µM, first compound 0.3 µM) was 5.67%. It also gave a viability, T/C (second compound 1 µM, first compound 0.000949 µM) of 132%, a viability, T/C (second compound 1 µM, first compound 0.003 µM) of 125% and a viability, T/C (second compound 1 µM, first compound 0.00949 µM) of 17%. It also gave a viability, T/C (second compound 1 µM, first compound 0.03 µM) of 13.4%, a viability, T/C (second compound 1 µM, first compound 0.0949 µM) of 9.36% and a viability, T/C (second compound 1 µM, first compound 0.3 µM) of 6.92%.
In the case of `CC(=O)OC12COC1CC(O)C1(C)C(=O)C(O)C3=C(C)C(OC(=O)C(O)C(NC(=O)OC(C)(C)C)c4ccccc4)CC(O)(C(OC(=O)c4ccccc4)C21)C3(C)C` (centres undefined), the viability, T/C (compound 0.0316 µM) was 1.05% [middle of 4 runs], the viability, T/C (compound 0.1 µM) was 1.29% [middle of 4 runs] and the viability, T/C (compound 0.316 µM) was 1.47% [middle of 4 runs]. The viability, T/C (compound 1 µM) was 1.41% [middle of 4 runs], the viability, T/C (compound 3.16 µM) was 1.6% [middle of 4 runs] and the viability, T/C (compound 10 µM) was 0.8% [middle of 4 runs]. For the same compound, the pIC50 (curve of compound) was greater than 7.50.
